Data on eleven compounds can be found in ChEMBL document CHEMBL1123932, “Berbanes: a new class of selective alpha 2-adrenoceptor antagonists” (J Med Chem, 1987).

Assay [1] deals with T1, Adrenergic receptor alpha-1 (Rattus norvegicus, UniProt P15823+P23944+P43140).
T1 sequence (P15823 whole entry): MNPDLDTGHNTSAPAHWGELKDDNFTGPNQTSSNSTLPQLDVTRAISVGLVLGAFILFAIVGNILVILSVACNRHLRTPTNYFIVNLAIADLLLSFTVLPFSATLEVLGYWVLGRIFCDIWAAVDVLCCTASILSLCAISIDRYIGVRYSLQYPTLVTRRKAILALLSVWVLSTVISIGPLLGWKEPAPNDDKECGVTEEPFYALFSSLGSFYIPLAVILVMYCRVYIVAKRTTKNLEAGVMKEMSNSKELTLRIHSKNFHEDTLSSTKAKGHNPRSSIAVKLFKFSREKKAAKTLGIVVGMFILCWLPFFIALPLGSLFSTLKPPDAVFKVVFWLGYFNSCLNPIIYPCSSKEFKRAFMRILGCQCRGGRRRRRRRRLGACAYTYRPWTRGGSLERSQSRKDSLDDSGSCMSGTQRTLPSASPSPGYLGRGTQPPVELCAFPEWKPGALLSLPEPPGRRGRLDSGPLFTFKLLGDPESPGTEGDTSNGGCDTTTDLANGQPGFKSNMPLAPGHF
T1 sequence (P23944 whole entry): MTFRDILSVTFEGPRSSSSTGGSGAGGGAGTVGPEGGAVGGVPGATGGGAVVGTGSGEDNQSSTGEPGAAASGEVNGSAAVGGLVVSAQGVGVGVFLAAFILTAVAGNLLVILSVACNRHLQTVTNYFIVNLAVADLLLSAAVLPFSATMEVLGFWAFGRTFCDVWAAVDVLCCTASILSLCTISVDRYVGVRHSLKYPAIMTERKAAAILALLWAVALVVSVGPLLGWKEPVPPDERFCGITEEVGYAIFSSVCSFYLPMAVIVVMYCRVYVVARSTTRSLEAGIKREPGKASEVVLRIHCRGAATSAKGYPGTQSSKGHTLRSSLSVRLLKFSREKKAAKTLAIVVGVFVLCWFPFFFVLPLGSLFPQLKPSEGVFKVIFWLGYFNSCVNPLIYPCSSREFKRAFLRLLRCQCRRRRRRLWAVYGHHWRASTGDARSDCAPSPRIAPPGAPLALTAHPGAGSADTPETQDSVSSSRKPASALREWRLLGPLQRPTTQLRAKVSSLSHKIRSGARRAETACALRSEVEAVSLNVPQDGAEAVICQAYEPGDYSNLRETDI
T1 sequence (P43140 whole entry): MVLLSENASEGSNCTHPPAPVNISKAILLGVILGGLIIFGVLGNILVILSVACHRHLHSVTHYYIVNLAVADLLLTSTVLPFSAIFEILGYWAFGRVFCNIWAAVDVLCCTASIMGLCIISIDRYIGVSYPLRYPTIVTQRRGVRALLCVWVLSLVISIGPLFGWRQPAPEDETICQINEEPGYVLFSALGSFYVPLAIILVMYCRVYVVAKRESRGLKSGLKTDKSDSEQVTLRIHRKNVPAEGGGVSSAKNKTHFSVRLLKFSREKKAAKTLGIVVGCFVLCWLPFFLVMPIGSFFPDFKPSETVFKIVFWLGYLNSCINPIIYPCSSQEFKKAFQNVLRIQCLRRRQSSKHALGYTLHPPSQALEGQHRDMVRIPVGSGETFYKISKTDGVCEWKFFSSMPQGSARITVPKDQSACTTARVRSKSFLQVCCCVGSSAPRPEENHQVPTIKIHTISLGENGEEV
As to the kind of experiment: Antagonistic activity against postsynaptic Alpha-1 adrenergic receptor in isolated rat vas deferens using (-)-phenylephrine as agonist. Format: functional, tissue-based.

Assay [2] addresses T2, Adrenergic receptor alpha-2 (Rattus norvegicus, UniProt P22086+P19328+P22909).
T2 sequence (P22086 whole entry): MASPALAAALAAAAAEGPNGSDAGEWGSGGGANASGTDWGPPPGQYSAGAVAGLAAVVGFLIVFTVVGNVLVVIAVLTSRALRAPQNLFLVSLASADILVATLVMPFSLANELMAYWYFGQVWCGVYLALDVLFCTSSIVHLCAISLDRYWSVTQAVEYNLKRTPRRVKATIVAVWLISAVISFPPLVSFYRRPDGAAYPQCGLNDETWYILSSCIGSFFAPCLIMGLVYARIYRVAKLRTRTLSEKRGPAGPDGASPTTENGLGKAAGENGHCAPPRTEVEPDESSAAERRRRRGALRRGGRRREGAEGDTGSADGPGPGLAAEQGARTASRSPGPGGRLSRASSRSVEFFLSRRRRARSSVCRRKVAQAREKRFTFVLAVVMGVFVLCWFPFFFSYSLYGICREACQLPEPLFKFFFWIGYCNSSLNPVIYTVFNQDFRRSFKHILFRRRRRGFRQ
T2 sequence (P19328 whole entry): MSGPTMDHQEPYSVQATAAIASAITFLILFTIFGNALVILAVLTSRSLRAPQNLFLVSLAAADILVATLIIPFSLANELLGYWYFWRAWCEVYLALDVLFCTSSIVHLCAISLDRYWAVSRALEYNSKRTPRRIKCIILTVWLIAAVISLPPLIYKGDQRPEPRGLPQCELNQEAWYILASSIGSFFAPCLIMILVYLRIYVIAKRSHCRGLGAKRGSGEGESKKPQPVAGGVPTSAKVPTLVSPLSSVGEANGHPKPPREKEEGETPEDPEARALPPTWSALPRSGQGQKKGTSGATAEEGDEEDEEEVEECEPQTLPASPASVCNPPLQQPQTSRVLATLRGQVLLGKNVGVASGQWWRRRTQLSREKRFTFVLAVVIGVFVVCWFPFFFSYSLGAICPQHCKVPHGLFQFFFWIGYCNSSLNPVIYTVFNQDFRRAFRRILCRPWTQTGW
T2 sequence (P22909 whole entry): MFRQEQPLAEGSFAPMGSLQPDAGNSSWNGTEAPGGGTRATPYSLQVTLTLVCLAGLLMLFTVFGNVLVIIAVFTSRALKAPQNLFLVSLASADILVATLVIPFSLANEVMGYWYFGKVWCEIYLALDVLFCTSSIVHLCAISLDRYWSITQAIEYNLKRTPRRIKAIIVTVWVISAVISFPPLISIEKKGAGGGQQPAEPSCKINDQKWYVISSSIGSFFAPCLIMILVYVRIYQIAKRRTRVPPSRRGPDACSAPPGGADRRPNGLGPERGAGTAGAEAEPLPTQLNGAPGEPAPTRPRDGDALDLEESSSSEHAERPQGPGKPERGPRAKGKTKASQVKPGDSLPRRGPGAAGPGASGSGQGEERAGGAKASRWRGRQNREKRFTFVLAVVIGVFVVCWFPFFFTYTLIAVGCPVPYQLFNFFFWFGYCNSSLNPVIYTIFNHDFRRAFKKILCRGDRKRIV
Put plainly: Antagonistic activity against presynaptic alpha-2 adrenergic receptor in isolated rat vas deferens using xylazine as agonist. The class given is functional, tissue-based.

Assay [3] has as its target Adrenergic receptor alpha-2 (Cavia porcellus). Put plainly: Antagonistic activity against adrenergic alpha-2 receptor in longitudinal muscle strip of the guinea pig ileum using l-norepinephrine as agonist.

What is called pA2 is a measure of antagonist potency on a negative log scale. A high value points to higher antagonist potency. As for `CCOC(=O)[C@H]1[C@H]2C[C@H]3c4cc5c(cc4CCN3C[C@H]2CC[C@H]1O)OCO5`, the pA2 in assay [1] is 5.51.

The compound `COC(=O)[C@@H]1C[C@@H]2CN3CCc4cc5c(cc4[C@@H]3C[C@@H]2C[C@@H]1O)OCO5` showed a pA2 in assay [1] of 4.8.

`COC(=O)[C@H]1C[C@H]2CN3CCc4cc5c(cc4[C@@H]3C[C@@H]2C[C@@H]1O)OCO5` came in with a pA2 in assay [1] of 5.98.

In the case of `Oc1cc2c(cc1O)[C@@H]1C[C@@H]3C[C@H](O)CC[C@@H]3CN1CC2`, the figures for the pA2 in assay [1] and in assay [2] were less than 4 and 5.74, respectively.

As for `OC[C@@H]1[C@H]2C[C@H]3c4cc5c(cc4CCN3C[C@@H]2CC[C@H]1O)OCO5`, in assay [1], the pA2 is given as 5.25.

In the case of `COc1cc2c(cc1OC)[C@@H]1C[C@@H]3C[C@H](OC(C)=O)CC[C@@H]3CN1CC2`, the pA2 in assay [3] is 6.19; in assay [1], 4.54; in assay [2], 6.61.

On to `N#C[C@@H]1C[C@@H]2CN3CCc4cc5c(cc4[C@@H]3C[C@@H]2C[C@@H]1O)OCO5`, for which the pA2 is recorded as 6.67 in assay [3], less than 4 in assay [1] and 6.1 in assay [2].

`CC(=O)O[C@@H]1CC[C@@H]2CN3CCc4cc5c(cc4[C@@H]3C[C@@H]2C1)OCO5`: the pA2 turned out to be 8.21 in assay [3], 4.55 in assay [1] and 7.3 in assay [2].

Take `OC[C@@H]1C[C@@H]2CN3CCc4cc5c(cc4[C@@H]3C[C@@H]2C[C@@H]1O)OCO5`: the pA2 in assay [1] is listed as less than 4.

Regarding `COc1cc2c(cc1OC)[C@@H]1C[C@@H]3C[C@H](O)CC[C@@H]3CN1CC2`, the values for the pA2 in assay [3], in assay [1] and in assay [2] were less than 4, less than 4 and 6.31, respectively.

With `CCOc1cc2c(cc1OCC)[C@@H]1C[C@@H]3C[C@H](O)CCC3CN1CC2` (stereo partly specified), the pA2 in assay [1] is less than 4; in assay [2] it was 6.41.
